These results are taken from article PMC3888718, “F-18 Labeled Vasoactive Intestinal Peptide Analogue in the PET Imaging of Colon Carcinoma in Nude Mice” (BioMed Research International, 2013).

Read-outs that look alike come from different tables or passages of the source. Where a SMILES comes first, the peptide text is derived from it. The star is where a group is joined. Benzoyl(4-F) = O=C(c1ccc(F)cc1)*

A short description of data set [1]: micro-PET imaging in C26 tumor bearing mice. The class given is in vivo. As to conditions: nude mice, tumor and muscle, total radioactivity, micro-PET; for tissue to tissue ratio at 1 h: 60 min after injection. The method, then:
(§1) C26 tumor bearing mice were obtained by right subaxillary implantation and were used in PET imaging test when the tumor had grown to the size of about 1 cm. PET imaging test in small animals was performed on a micro-PET R4 scanner (Concorde Microsystems, Siemens, Germany). After sodium pentobarbital anesthesia, C26 tumor bearing mice were injected with 1.5 MBq (40 μCi) [F-18]FB-[R^8,15,21, L^17]-VIP and placed in the central zone of the micro-PET device separately at 5 min, 60 min, and 120 min following injection. They underwent static scanning for 10 min at different points. The original data obtained were transformed into 2D image by Fourier transform and 2D FBP reconstruction.
(§2) Blocking experiment was conducted to explore whether [F-18]FB-[R^8,15,21, L^17]-VIP was receptor-specific. 100 μg of nonlabeled VIP polypeptide mixed with 40 μCi [F-18]FB-[R^8,15,21, L^17]-VIP was injected into each C26 tumor bearing mouse. The imaging experiment with blocking was performed 60 min following injection, using scanning for 10 min and the same procedures and data treatment process as above.

Data set [2] deals with C26 colon carcinoma. The data set is described as follows: micro-PET imaging in C26 tumor bearing mice. The class given is in vivo. As to conditions: micro-PET images, C26 tumor bearing mice. The method, then: as §1, §2
Data set [3] is described as follows: tissue distribution test in normal BALB/C mice. The class given is in vivo. As to conditions: 100 μCi tail vein, 5-120 min, γ counter, n = 5 per group. The method, then:
All animal experiments followed the laboratory animal specifications of Zhongshan Hospital, Fudan University. In order to obtain preliminary in vivo pharmacokinetics data of this radiolabeled polypeptide, 100 μL 3.7 MBq (100 μCi) [F-18]FB-[R^8,15,21, L^17]-VIP was injected into each normal BALB/C mouse through tail vein. 20 mice were assigned to 4 groups evenly. At 5, 30, 60, and 120 min following injection, they were sacrificed under anesthesia. Mice in each group were immediately subject to autopsy, where the organs and tissues of interest, including brain, liver, kidneys, heart, lungs, spleen, stomach, small intestine, muscles, bones, and blood, were collected. All the tissue samples were weighed and their counting were measured by γ counter, so that the percent injected dose per each gram of tissue (% ID/g) was derived.

The conditions of data set [4]: cited from earlier work. An excerpt:
(§3) Since Virgolin initially reported use of ^123I labeled VIP in the imaging study of tumor VIP receptors, several potential ^123I, ^99 mTc, F-18, and ^64Cu labeled VIP analogues have been developed. […] Therefore, our early efforts mainly focused on the structural modification for improving in vivo stability of VIP polypeptide and a series of studie ...

The test system of data set [5] is VIP receptor. As to conditions: cited from earlier work.
Source text: as §3

Data set [6] deals with colon carcinoma cells LS174T. As to conditions: mouse, in vivo; cited from earlier work. From the text:
Like other neuropeptides, VIP is quickly metabolized in liver and excreted from kidneys. Given this, when VIP is to be used as an imaging agent, chemical modification of its structure is mandatory to extend the biological half-life in order to meet the imaging requirement. […] Pallela et al. labeled VIP analogue (TP3654) by ^99mTc and conducted animal distribution and imaging tests in nude mice transpla ...

Consider `CC[C@H](C)[C@H](NC(=O)[C@H](CO)NC(=O)[C@H](CC(N)=O)NC(=O)[C@H](CC(C)C)NC(=O)[C@H](Cc1ccc(O)cc1)NC(=O)[C@H](CCCNC(=N)N)NC(=O)[C@H](CCCCNC(=O)c1ccc(F)cc1)NC(=O)[C@@H](NC(=O)[C@H](C)NC(=O)[C@H](CC(C)C)NC(=O)[C@H](CCC(N)=O)NC(=O)[C@H](CCCNC(=N)N)NC(=O)[C@H](CCCNC(=N)N)NC(=O)[C@H](CC(C)C)NC(=O)[C@H](CCCNC(=N)N)NC(=O)[C@@H](NC(=O)[C@H](Cc1ccc(O)cc1)NC(=O)[C@H](CC(N)=O)NC(=O)[C@H](CCCNC(=N)N)NC(=O)[C@@H](NC(=O)[C@H](Cc1ccccc1)NC(=O)[C@@H](NC(=O)[C@H](C)NC(=O)[C@H](CC(=O)O)NC(=O)[C@H](CO)NC(=O)[C@@H](N)Cc1c[nH]cn1)C(C)C)[C@@H](C)O)[C@@H](C)O)C(C)C)C(=O)N[C@@H](CC(C)C)C(=O)N[C@@H](CC(N)=O)C(N)=O` [[F-18]FB-[R^8,15,21, L^17]-VIP] (H-HSDAVFTRNYTRLRRQLAVK(Benzoyl(4-F))RYLNSILN-NH2; N-terminus assumed), for which the tissue to tissue ratio at 5 min in data set [1] (mouse, iv, 40 uCi, C26 tumor bearing mice, 40 μCi i.v., 5 min after injection, 10 min static scan, read-out: tumor-to-muscle ratio (T/M)) amounted to 1.84. In addition, the tissue to tissue ratio at 1 h in data set [1] (mouse, iv, 40 uCi, C26 tumor bearing mice, 40 μCi, unblocked, read-out: tumor-to-muscle ratio (T/M)) was 3.03; in data set [1] (C26 tumor bearing mouse, 40 μCi mixed with 100 μg nonlabeled VIP, read-out: tumor-to-muscle ratio (T/M), blocking experiment) it was 1.01. The tissue to tissue ratio at 2 h in data set [1] (mouse, iv, 40 uCi, C26 tumor bearing mice, 40 μCi, 120 min after injection, read-out: tumor-to-muscle ratio (T/M)) amounted to 3.74. Further, the “passage through the blood-brain barrier” value in data set [2] is given as “could not pass through the blood-brain barrier”. Further, the “bone absorption (in vivo defluorination stability)” value in data set [2] (up until 120 min) is “no marked bone absorption”. Further, the “bone absorption (defluorination stability)” value in data set [3] is “low bone absorption”.

Turning to “H-HSDAVFTRNYTRLRRQLAVKRYLNSILN-NH2 [[R^8,15,21, L^17]-VIP, VIP analogue, 28-residue peptide amide, precursor for F-18 labeling]”, the “in vivo stability in comparison to native VIP” value in data set [4] is given as “higher”. In data set [5], the “receptor affinity in comparison to native VIP” value is given as “higher”.

Consider “^125I-VIP: ^125I labeled vasoactive intestinal peptide”, for which, in data set [6], the “tumor/blood ratio (T/B)” value is listed as 0.88 ± 0.16 and the “tumor/muscle ratio (T/M)” value was 0.38 ± 0.56.
